{
  "source": "patent US20090202494A1",
  "about": "“Combined use of glp-1 agonists and gastrin for regulating blood glucose levels” (priority 2004, published 2009)",
  "format_in_all_cases": "in vivo, mouse",
  "key": {"[1]": {"test_system": "acutely-diabetic NOD mice", "test": "Example 2: pancreatic insulin levels in NOD mice", "procedure": "(§1) The mice were monitored daily for urine glucose levels and weekly for FBG levels during the treatment and for an additional 6 weeks after the treatment was stopped. The pancreatic insulin levels were determined in each group as well as histological analysis of the pancreatic tissue was performed. Pancreatic tissues were fixed and stained for insulin producing cells. The beta cell mass was determined by morphometric analysis."}, "[2]": {"test_system": "acutely-diabetic NOD mice", "test": "Example 1: fasting blood glucose in acutely-diabetic NOD mice treated with GLP-1 or GLP-1 + Gastrin", "procedure": "Female NOD mice ages 12-16 weeks were treated for 18 days only with vehicle (PBS), GLP-1 (300 μg/kg/day), or GLP-1 (300 μg/kg/day)+Gastrin (3 μg/kg/day), by injection intraperitoneally twice daily within 2 days after diabetes onset. Onset of diabetes was determined by fasting blood glucose (FBG) levels (9-15 mM compared with normal FBG <6.0 mM). The mice were monitored daily for urine glucose and weekly for FBG levels.\nAt the start of the treatments, fasting blood glucose levels ranged between 11-14 mM. After 18 days of treatments, FBG was 24±1 mM in vehicle-treated mice, 13±2 mM in mice treated with GLP-1 alone, and 6±1 mM in mice treated with the combination of GLP-1 and Gastrin (mean±SE, n=4 mice in treated groups; n=6 mice in the control group).\nAfter 18 days of treatment therapy was stopped and FBG was monitored weekly for additional six weeks. […] Comparatively, the untreated group of animals had to be sacrificed due to the severity of the disease after five weeks."}, "[3]": {"test_system": "acutely-diabetic NOD mice", "test": "Example 2: fasting blood glucose in acutely-diabetic NOD mice, during treatment and 6 weeks after", "procedure": "as §1"}},
  "data": [
    {"substance": "GLP-1(7-36) Amide, Human", "values": [
      {"measurement": "effect on pancreatic insulin levels (in words)", "setting": "[1]", "result": "modest effect only"},
      {"measurement": "FBG course during six weeks after treatment was stopped", "setting": "[2]; FBG monitored weekly for six weeks post treatment", "result": "transient improvement in FBG levels up to 2 weeks after the treatment was stopped"},
      {"measurement": "fasting blood glucose (FBG) after 18 days of treatments", "setting": "[2]; female NOD mice, i.p. twice daily for 18 days, GLP-1 300 μg/kg/day, Gastrin 3 μg/kg/day, mean±SE, n=4, normal FBG <6.0 mM", "result": "13 ± 2", "unit": "mM"},
      {"measurement": "fasting blood glucose after 18 days of daily treatments", "setting": "[3]; NOD mice, i.p. twice daily, combination printed as 30 μg/kg/day of GLP-1 and 3 μg/kg/day of G1", "result": "12.5 ± 2.2", "unit": "mM"},
      {"measurement": "maximal blood glucose levels reached post treatment", "setting": "[3]; after treatments stopped, animals suffering from diabetic complications", "result": "over 30 mM"}
    ]}
  ]
}
